The term Ki denotes the equilibrium dissociation constant of an inhibitor or competing ligand from its target.

SMILES strings stand for the structures.

Consider 33 compounds from patent US7041681B2, “Compounds as opioid receptor modulators” (Janssen Pharmaceutica N.V., priority 2002, dated 2006).

In assay [1] the target is T1, delta opioid receptor (Rattus norvegicus, UniProt P33533).
T1 construct: from tissue; host or cells: rat forebrain homogenate (Wistar rat)
Description: Rat Brain Delta Opioid Receptor Binding Assay. To be noted: rat forebrain membranes, ~4 nM [3H]DPDPE, 25° C., 2.5 h; read-out: δ-opioid binding (Ki). The method, then:
(§1) Male, Wistar rats (150–250 g, VAF, Charles River, Kingston, N.Y.) are killed by cervical dislocation, and their brains removed and placed immediately in ice cold Tris HCl buffer (50 mM, pH 7.4). The forebrains are separated from the remainder of the brain by a coronal transection, beginning dorsally at the colliculi and passing ventrally through the midbrain-pontine junction. After dissection, the forebrains are homogenized in Tris buffer in a Teflon®-glass homogenizer. The homogenize is diluted to a concentration of 1 g of forebrain tissue per 80 mL Tris and centrifuged at 39,000×g for 10 min. The pellet is resuspended in the same volume of Tris buffer containing 5 mM MgCl2 with several brief pulses from a Polytron homogenizer. This particulate preparation is used for the delta opioid binding assays. Following incubation with the delta selective peptide ligand ˜4 nM [^3H]DPDPE at 25° C. for 2.5 h in a 96-well plate with total volume of 1 ml, the plate contents are filtered through Wallac filtermat B sheets on a Tomtec 96-well harvester. The filters are rinsed three times with 2 mL of 10 mM HEPES (pH7.4), and dried in a microwave oven 1:45 min twice. To each sample area 2×40 μl of Betaplate Scint scintillation fluid (LKB) is added and analyzed on a LKB (Wallac) 1205 BetaPlate liquid scintillation counter.
(§2) The data are used to calculate either the % inhibition compared to control binding (when only a single concentration of test compound is evaluated) or a Ki value (when a range of concentrations is tested). % inhibition is calculated as: [(total dpm-test compound dpm dpm)/(total dpm-nonspecific dpm)]*100. Kd and Ki values were calculated using GraphPad PRISM data analysis program.

Assay [2] deals with T2, mu opioid receptor (Rattus norvegicus, UniProt P33535).
T2 construct: from tissue; host or cells: rat forebrain homogenate (Wistar rat)
Nature of the assay: Rat Brain mu Opioid Receptor Binding Assay. Particulars: rat forebrain membranes, ~0.8 nM [3H]DAMGO, 25° C., 2.5 h; read-out: μ-opioid binding (Ki). The procedure:
as §1, with “mu-opioid” for “delta opioid”, “mu” for “delta”, “˜0.8” for “˜4”, “[^3H]DAMGO” for “[^3H]DPDPE”, “total” for “total volume of”
as §2

T1 sequence (P33533 whole entry): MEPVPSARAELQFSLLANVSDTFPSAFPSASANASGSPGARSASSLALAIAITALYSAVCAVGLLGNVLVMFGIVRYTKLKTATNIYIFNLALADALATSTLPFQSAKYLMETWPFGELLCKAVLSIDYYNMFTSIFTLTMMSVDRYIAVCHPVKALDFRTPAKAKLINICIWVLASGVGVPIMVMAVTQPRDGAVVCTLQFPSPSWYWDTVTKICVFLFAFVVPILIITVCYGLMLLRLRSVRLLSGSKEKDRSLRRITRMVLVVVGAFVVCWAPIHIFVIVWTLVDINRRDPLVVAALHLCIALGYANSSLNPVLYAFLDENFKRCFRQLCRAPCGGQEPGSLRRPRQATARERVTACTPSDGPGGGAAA
T2 sequence (P33535 whole entry): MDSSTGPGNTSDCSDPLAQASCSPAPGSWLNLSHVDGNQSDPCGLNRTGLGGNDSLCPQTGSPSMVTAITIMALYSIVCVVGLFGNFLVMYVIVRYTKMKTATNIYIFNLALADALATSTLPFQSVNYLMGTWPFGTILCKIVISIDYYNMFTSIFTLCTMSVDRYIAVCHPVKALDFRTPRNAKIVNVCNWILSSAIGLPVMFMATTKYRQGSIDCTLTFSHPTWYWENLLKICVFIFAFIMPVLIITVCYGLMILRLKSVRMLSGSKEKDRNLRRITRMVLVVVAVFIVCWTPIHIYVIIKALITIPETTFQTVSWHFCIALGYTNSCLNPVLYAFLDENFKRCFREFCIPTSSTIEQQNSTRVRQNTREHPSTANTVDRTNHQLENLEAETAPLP

Take `NC(=O)c1ccc(CC(N)C(=O)N2Cc3ccccc3CC2c2nc(-c3ccccc3)c[nH]2)cc1` (stereo not drawn) [Cmpd 115]: the figures for the Ki in assay [1] and in assay [2] were 1.3 nM and 23.2 nM, respectively.
For `Cc1cc(OC(=O)C(C)(C)C)cc(C)c1C[C@H](N)C(=O)N1Cc2ccccc2C[C@H]1c1nc(-c2ccccc2)c[nH]1` [Cmpd 116], the Ki in assay [1] came out at 3.5 nM; in assay [2], 9.6 nM.
For `CNC(=O)c1ccc(C[C@H](N)C(=O)N2Cc3ccccc3C[C@H]2c2nc(-c3ccccc3)c[nH]2)cc1` [Cmpd 117], in that order: 1.61 nM and 23.6 nM.
For `Cc1[nH]c([C@@H]2Cc3ccccc3CN2C(=O)[C@@H](N)Cc2ccc(C(N)=O)cc2)nc1-c1ccccc1` [Cmpd 118], the Ki was determined as 0.73 nM in assay [1] and 23.1 nM in assay [2].
For `Cc1[nH]c([C@@H]2Cc3ccccc3CN2C(=O)[C@@H](N)Cc2ccc([N+](=O)[O-])cc2)nc1-c1ccccc1` [Cmpd 120], in that order: 674 nM and 1350 nM.
In the case of `CC(N)(Cc1ccc(O)cc1)C(=O)N1Cc2ccccc2CC1c1nc(-c2ccccc2)c[nH]1` (stereo not drawn) [Cmpd 121], the values for the Ki in assay [1] and in assay [2] were 1.32 nM and 38 nM, respectively.
For `C[C@](N)(Cc1ccc(OCc2ccccc2)cc1)C(=O)N1Cc2ccccc2C[C@H]1c1nc(-c2ccccc2)c[nH]1` [Cmpd 122], in that order: 346 nM and 2520 nM.
As to `CN[C@@H](Cc1c(C)cc(O)cc1C)C(=O)N1Cc2ccccc2C[C@H]1c1nc(-c2ccccc2)c[nH]1` [Cmpd 127], the Ki in assay [1] amounted to 0.4 nM; in assay [2], 7.1 nM.
With `CN[C@@H](Cc1ccc(OC(=O)C(C)(C)C)cc1)C(=O)N1Cc2ccccc2C[C@H]1c1nc(-c2ccccc2)c[nH]1` [Cmpd 128], the Ki came to 5.2 nM in assay [1] and 213 nM in assay [2].
Regarding `N[C@@H](Cc1ccc(O)c([N+](=O)[O-])c1)C(=O)N1Cc2ccccc2C[C@H]1c1nc(-c2ccccc2)c[nH]1` [Cmpd 129], the Ki was 50000 nM in assay [1] and 25700 nM in assay [2].
As for `Cc1cc(O)cc(C)c1CC(N)C(=O)N1Cc2ccccc2CC1c1nc(-c2ccccc2)c[nH]1` (stereo not drawn) [Cmpd 131], the figures for the inhibition constant (Ki) in assay [1] and in assay [2] were 0.09 nM and 0.3 nM, respectively.
As to `Cc1cc(O)cc(C)c1C[C@H](N)C(=O)N1Cc2ccccc2C[C@H]1c1nc(-c2ccccc2)c(Br)[nH]1` [Cmpd 132], the values for the Ki in assay [1] and in assay [2] were 0.1 nM and 0.17 nM, respectively.
For the compound `Cc1cc(O)cc(C)c1C[C@H](N)C(=O)N1Cc2ccccc2C[C@H]1c1nc(-c2ccccc2)c(Cl)[nH]1` [Cmpd 133], the Ki in assay [1] is 0.12 nM; in assay [2], 0.18 nM.
For the compound `O=C([C@H](Cc1ccc(O)cc1)NCc1ccccc1)N1Cc2ccccc2C[C@@H]1c1nc(-c2ccccc2)c[nH]1` [Cmpd 134], the Ki came out at 10000 nM in assay [1] and 329 nM in assay [2].
For `O=C(C(Cc1ccc(O)cc1)NCc1ccccc1)N1Cc2ccccc2CC1c1nc(-c2ccccc2)c[nH]1` (stereo not drawn) [Cmpd 135], the Ki in assay [1] worked out at 185 nM; in assay [2], 10000 nM.
For `CCN[C@@H](Cc1ccc(O)cc1)C(=O)N1Cc2ccccc2C[C@@H]1c1nc(-c2ccccc2)c[nH]1` [Cmpd 136], the Ki worked out at 116 nM in assay [1] and 229 nM in assay [2].
For the compound `CCN[C@@H](Cc1ccc(O)cc1)C(=O)N1Cc2ccccc2C[C@H]1c1nc(-c2ccccc2)c[nH]1` [Cmpd 137], the values for the Ki in assay [1] and in assay [2] were 3.89 nM and 368 nM, respectively.
For `CC(C)NC(Cc1ccc(O)cc1)C(=O)N1Cc2ccccc2CC1c1nc(-c2ccccc2)c[nH]1` (stereo not drawn) [Cmpd 138], the Ki in assay [1] was determined as 397 nM; in assay [2], 10000 nM.
For the compound `CC(=O)Nc1ccc(C[C@H](N)C(=O)N2Cc3ccccc3C[C@H]2c2nc(-c3ccccc3)c(C)[nH]2)cc1` [Cmpd 141], the inhibition constant Ki in assay [1] was determined as 34 nM; in assay [2], 207 nM.
In the case of `Cc1[nH]c([C@@H]2Cc3ccccc3CN2C(=O)[C@@H](N)Cc2ccc(N)cc2)nc1-c1ccccc1` [Cmpd 142], the Ki in assay [1] is 93 nM; in assay [2], 857 nM.
The corresponding values for `Cc1[nH]c([C@@H]2Cc3ccccc3CN2C(=O)[C@@H](N)Cc2ccc(F)cc2)nc1-c1ccccc1` [Cmpd 143] are 687 nM and 12800 nM.
As for `N[C@@H](Cc1ccc(Cl)cc1)C(=O)N1Cc2ccccc2C[C@H]1c1nc(-c2ccccc2)c[nH]1` [Cmpd 144], the Ki was determined as 1130 nM in assay [1] and 5260 nM in assay [2].
As for `CNC(Cc1ccc(O)cc1)C(=O)N1Cc2ccccc2CC1c1nc(-c2ccccc2)c[nH]1` (stereo not drawn) [Cmpd 145], the Ki in assay [1] is 1.18 nM; in assay [2] it was 59.1 nM.
On to `CNC(Cc1c(C)cc(OC)cc1C)C(=O)N1Cc2ccccc2CC1c1nc(-c2ccccc2)c[nH]1` (stereo not drawn) [Cmpd 146], for which the inhibition constant Ki amounted to 668 nM in assay [1] and 817 nM in assay [2].
Turning to `COc1cc(C)c(CC(N)C(=O)N2Cc3ccccc3CC2c2nc(-c3ccccc3)c[nH]2)c(C)c1` (stereo not drawn) [Cmpd 147], the Ki in assay [1] was 43 nM; in assay [2] it was 150 nM.
As for `Cc1cc(O)cc(C)c1C[C@H](N)C(=O)N1Cc2ccccc2C[C@H]1c1nc(-c2ccccc2)c(C)[nH]1` [Cmpd 149], the Ki worked out at 0.8 nM in assay [1] and 3 nM in assay [2].
Take `COc1ccc(CC(N)C(=O)N2Cc3ccccc3CC2c2nc(-c3ccccc3)c(C)[nH]2)cc1` (stereo not drawn) [Cmpd 154]: the inhibition constant Ki in assay [1] and in assay [2] was 10000 nM each time.
With `CNC(Cc1ccc(O)cc1)C(=O)N1Cc2ccccc2CC1c1nc(-c2ccccc2)c(C)[nH]1` (stereo not drawn) [Cmpd 155], the Ki in assay [1] turned out to be 0.44 nM; in assay [2] it was 23.2 nM.
Turning to `COc1ccc(C[C@H](N)C(=O)N2Cc3ccccc3C[C@H]2c2nc(-c3ccccc3)c(C)[nH]2)cc1` [Cmpd 156], the results for the inhibition constant (Ki) in assay [1] and in assay [2] were 28 nM and 179 nM, respectively.
Turning to `CN[C@@H](Cc1ccc(O)cc1)C(=O)N1Cc2ccccc2C[C@H]1c1nc(-c2ccccc2)c(C)[nH]1` [Cmpd 157], the inhibition constant Ki in assay [1] was determined as 0.57 nM; in assay [2], 30 nM.
Turning to `Cc1cc(O)cc(C)c1C[C@H](N)C(=O)N1CCCC[C@@H]1c1nc(-c2ccccc2)c[nH]1` [Cmpd 158], the Ki in assay [1] worked out at 5.43 nM; in assay [2], 0.15 nM.
For `N#Cc1ccc(CC(N)C(=O)N2Cc3ccccc3CC2c2nc(-c3ccccc3)c[nH]2)cc1` (stereo not drawn) [Cmpd 160], in that order: 752 nM and 1340 nM.
For the compound `N[C@@H](Cc1cccc(O)c1)C(=O)N1Cc2ccccc2C[C@H]1c1nc(-c2ccccc2)c[nH]1` [Cmpd 161], the Ki was 133 nM in assay [1] and 480 nM in assay [2].
